Source: article PMC12090182, “Repurposing of the RIPK1-Selective Benzo[1,4]oxazepin-4-one Scaffold for the Development of a Type III LIMK1/2 Inhibitor” (ACS Chemical Biology, 2025)
Where two headings read alike, the source gives them in different places.

Columns and labels:
Format in all cases: binding
[1] = target: FLT3(D835Y) (Homo sapiens, UniProt P36888, D835Y); assay: biochemical; details: 1000 nM, read-out: Percent Control
[2] = target: ABL1(F317I)-phosphorylated (Homo sapiens, UniProt P00519, F317I); assay: biochemical; details: read-out: Percent Control
[3] = target: FGFR3(G697C) (Homo sapiens, UniProt P22607, G697C); assay: biochemical; details: compound concentration 100 nM; Entrez FGFR3; read-out: Percent Control
[4] = target: T1, FLT3(D835H) (Homo sapiens, UniProt P36888, D835H); assay: biochemical; details: 1000 nM, read-out: Percent Control
[5] = target: KIT(D816V) (Homo sapiens, UniProt P10721, D816V); assay: biochemical; details: compound concentration 100 nM; Entrez KIT; read-out: Percent Control
[6] = target: BRAF(V600E) (Homo sapiens, UniProt P15056, V600E); assay: biochemical; details: 1000 nM, read-out: Percent Control
[7] = target: CDK7 (Homo sapiens, UniProt P50613); assay: scanMAX KINOMEscan (Eurofins); details: read-out: Percent Control
From the text: (§1) Supplement cb5c00097_si_002.xlsx, sheet "Table S6 (Eurofins Selectivity)" | column: Percent Control

[8] = target: RET (Homo sapiens, UniProt P07949); assay: scanMAX KINOMEscan (Eurofins); details: compound concentration 100 nM; Entrez RET; read-out: Percent Control
From the text: as §1

[9] = target: MERTK (Homo sapiens, UniProt Q12866); assay: scanMAX KINOMEscan (Eurofins); details: 1000 nM, read-out: Percent Control
From the text: as §1

[10] = target: AXL (Homo sapiens, UniProt P30530); assay: scanMAX KINOMEscan (Eurofins); details: read-out: Percent Control
From the text: as §1

[11] = target: ZAK (Homo sapiens, UniProt Q9NYL2); assay: scanMAX KINOMEscan (Eurofins); details: compound concentration 100 nM; Entrez ZAK; read-out: Percent Control
From the text: as §1

[12] = target: PIK3CA(Q546K) (Homo sapiens, UniProt P42336, Q546K); assay: biochemical; details: read-out: Percent Control
[13] = target: RET(V804L) (Homo sapiens, UniProt P07949, V804L); assay: biochemical; details: compound concentration 100 nM; Entrez RET; read-out: Percent Control
[14] = target: T1, FLT3(D835H); assay: biochemical; details: compound concentration 100 nM; Entrez FLT3; read-out: Percent Control
[15] = target: ABL1(F317I)-nonphosphorylated (Homo sapiens, UniProt P00519, F317I); assay: biochemical; details: read-out: Percent Control
[16] = target: PIK3CA(H1047L) (Homo sapiens, UniProt P42336, H1047L); assay: biochemical; details: compound concentration 100 nM; Entrez PIK3CA; read-out: Percent Control
[17] = target: EGFR(L747-E749del, A750P) (Homo sapiens, UniProt P00533, A750P/DEL747-749); assay: biochemical; details: read-out: Percent Control
[18] = target: ABL1(Q252H)-phosphorylated (Homo sapiens, UniProt P00519, Q252H); assay: biochemical; details: read-out: Percent Control
[19] = target: KIT(L576P) (Homo sapiens, UniProt P10721, L576P); assay: biochemical; details: 1000 nM, read-out: Percent Control
[20] = target: RET(M918T) (Homo sapiens, UniProt P07949, M918T); assay: biochemical; details: 1000 nM, read-out: Percent Control
[21] = target: WNK2 (Homo sapiens, UniProt Q9Y3S1); assay: scanMAX KINOMEscan (Eurofins)
[22] = target: ALK(L1196M) (Homo sapiens, UniProt Q9UM73, L1196M); assay: biochemical; details: 1000 nM, read-out: Percent Control
[23] = target: PIK3CA(M1043I) (Homo sapiens, UniProt P42336, M1043I); assay: biochemical; details: read-out: Percent Control
[24] = target: KIT(V559D,V654A) (Homo sapiens, UniProt P10721, V559D/V654A); assay: biochemical; details: read-out: Percent Control
[25] = target: FLT3(D835V) (Homo sapiens, UniProt P36888, D835V); assay: biochemical; details: 1000 nM, read-out: Percent Control
[26] = target: EGFR(L858R,T790M) (Homo sapiens, UniProt P00533, L858R/T790M); assay: biochemical; details: read-out: Percent Control
[27] = target: EGFR(T790M) (Homo sapiens, UniProt P00533, T790M); assay: biochemical; details: 1000 nM, read-out: Percent Control
[28] = target: EGFR(L861Q) (Homo sapiens, UniProt P00533, L861Q); assay: biochemical; details: 1000 nM, read-out: Percent Control
[29] = target: FLT3(K663Q) (Homo sapiens, UniProt P36888, K663Q); assay: biochemical; details: compound concentration 100 nM; Entrez FLT3; read-out: Percent Control
[30] = target: ABL1(T315I)-phosphorylated (Homo sapiens, UniProt P00519, T315I); assay: biochemical; details: read-out: Percent Control
[31] = target: ABL1(Q252H)-nonphosphorylated (Homo sapiens, UniProt P00519, Q252H); assay: biochemical; details: read-out: Percent Control
[32] = system: EGFR(L747-T751del,Sins)
[33] = target: LIMK2 (Homo sapiens, UniProt P53671); assay: Differential scanning fluorimetry assay for LIMK1/2; details: LIMK2, 10 μM compound
LIMK2, sequence (P53671 330-632): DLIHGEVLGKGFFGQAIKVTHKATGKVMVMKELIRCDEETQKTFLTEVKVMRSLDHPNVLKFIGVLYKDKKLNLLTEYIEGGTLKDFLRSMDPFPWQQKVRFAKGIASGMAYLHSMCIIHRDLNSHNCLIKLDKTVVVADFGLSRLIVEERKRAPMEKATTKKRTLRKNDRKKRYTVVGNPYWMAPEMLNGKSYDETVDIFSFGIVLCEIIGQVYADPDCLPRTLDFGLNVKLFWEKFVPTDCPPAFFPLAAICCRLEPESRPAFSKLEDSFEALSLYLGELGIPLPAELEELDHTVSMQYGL
Method: The assay was performed according to a previously established protocol. […] The compounds to be tested were added to a final concentration of 10 μM. […] Data were analyzed with MxPro software.

WNK2, sequence (Q9Y3S1 whole entry): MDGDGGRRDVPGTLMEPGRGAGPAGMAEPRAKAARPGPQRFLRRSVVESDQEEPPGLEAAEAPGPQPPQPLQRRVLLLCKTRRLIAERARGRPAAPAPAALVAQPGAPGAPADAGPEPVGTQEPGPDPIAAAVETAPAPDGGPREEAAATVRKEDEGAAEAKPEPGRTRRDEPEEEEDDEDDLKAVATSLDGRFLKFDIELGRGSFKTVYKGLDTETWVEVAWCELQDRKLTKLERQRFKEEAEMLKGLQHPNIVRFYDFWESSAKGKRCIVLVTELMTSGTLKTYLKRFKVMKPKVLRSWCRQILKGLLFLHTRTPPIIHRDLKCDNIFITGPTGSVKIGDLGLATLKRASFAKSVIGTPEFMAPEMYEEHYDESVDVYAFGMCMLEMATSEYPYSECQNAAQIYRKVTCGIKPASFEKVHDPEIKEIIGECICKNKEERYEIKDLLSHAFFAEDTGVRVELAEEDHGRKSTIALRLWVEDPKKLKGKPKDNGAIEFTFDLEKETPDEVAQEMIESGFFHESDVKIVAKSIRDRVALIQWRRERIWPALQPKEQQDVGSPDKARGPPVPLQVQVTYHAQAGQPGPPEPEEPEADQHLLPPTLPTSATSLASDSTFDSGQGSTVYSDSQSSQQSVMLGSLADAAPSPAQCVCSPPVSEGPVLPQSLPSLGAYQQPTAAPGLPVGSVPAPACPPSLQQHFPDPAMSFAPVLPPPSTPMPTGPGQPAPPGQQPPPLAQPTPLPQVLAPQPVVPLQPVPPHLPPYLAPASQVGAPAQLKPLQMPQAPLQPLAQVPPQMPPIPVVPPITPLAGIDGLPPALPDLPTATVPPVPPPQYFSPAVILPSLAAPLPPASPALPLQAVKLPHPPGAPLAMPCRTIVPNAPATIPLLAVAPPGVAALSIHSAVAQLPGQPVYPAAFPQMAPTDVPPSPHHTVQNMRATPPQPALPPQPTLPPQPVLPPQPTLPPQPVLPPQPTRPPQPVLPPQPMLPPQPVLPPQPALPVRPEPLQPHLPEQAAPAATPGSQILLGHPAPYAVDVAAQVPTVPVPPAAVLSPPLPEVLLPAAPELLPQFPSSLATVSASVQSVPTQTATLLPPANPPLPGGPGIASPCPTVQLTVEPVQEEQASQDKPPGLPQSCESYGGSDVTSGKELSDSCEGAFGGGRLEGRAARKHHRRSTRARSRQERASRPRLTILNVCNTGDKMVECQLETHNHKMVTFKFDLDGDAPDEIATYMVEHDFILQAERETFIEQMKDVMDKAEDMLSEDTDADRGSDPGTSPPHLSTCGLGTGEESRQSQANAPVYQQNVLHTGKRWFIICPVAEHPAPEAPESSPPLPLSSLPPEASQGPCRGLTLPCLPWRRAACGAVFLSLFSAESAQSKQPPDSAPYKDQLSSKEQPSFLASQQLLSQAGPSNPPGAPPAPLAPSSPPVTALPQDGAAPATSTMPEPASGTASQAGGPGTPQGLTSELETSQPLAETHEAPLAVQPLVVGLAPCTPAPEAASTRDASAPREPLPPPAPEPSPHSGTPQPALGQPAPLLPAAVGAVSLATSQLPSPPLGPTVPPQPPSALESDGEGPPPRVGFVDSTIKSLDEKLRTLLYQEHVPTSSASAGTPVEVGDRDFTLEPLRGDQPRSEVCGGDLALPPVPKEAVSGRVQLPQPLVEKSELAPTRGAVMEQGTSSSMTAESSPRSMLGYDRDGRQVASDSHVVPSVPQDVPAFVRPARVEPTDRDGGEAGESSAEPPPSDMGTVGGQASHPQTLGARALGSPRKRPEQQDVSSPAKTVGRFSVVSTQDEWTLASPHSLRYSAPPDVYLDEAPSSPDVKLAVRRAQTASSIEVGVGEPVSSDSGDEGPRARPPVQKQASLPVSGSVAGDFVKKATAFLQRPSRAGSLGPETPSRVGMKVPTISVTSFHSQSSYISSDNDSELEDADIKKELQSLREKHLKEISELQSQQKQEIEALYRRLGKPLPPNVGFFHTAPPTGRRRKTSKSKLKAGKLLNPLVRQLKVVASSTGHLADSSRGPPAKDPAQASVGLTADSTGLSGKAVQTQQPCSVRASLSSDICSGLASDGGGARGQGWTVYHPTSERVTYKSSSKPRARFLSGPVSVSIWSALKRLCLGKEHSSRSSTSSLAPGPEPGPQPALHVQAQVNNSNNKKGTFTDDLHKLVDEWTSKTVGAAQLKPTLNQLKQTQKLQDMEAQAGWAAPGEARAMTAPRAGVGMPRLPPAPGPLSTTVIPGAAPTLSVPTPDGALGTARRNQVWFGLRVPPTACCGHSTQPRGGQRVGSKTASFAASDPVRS
AXL, sequence (P30530 26-894): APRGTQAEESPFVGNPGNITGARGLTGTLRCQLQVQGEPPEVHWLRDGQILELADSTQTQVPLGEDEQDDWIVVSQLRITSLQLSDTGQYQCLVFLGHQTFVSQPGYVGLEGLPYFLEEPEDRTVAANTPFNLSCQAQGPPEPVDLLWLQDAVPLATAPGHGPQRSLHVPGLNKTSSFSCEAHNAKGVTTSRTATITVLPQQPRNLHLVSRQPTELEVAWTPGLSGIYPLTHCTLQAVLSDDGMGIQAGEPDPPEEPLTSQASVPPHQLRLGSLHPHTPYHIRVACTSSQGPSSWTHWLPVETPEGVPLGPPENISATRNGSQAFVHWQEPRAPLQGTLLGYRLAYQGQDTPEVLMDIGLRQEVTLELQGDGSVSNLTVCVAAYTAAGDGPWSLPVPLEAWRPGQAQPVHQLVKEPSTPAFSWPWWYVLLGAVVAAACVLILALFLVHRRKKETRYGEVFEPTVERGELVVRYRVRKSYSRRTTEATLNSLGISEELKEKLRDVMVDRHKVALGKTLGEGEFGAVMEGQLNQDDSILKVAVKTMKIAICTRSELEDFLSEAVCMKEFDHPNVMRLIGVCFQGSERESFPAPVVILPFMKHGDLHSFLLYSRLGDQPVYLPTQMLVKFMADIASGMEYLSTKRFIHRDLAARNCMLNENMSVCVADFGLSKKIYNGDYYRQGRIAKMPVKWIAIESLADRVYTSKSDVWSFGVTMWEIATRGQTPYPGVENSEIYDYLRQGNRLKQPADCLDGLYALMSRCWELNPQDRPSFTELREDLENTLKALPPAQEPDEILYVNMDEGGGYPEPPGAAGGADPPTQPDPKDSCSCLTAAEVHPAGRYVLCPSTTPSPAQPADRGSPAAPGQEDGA
CDK7, sequence (P50613 whole entry): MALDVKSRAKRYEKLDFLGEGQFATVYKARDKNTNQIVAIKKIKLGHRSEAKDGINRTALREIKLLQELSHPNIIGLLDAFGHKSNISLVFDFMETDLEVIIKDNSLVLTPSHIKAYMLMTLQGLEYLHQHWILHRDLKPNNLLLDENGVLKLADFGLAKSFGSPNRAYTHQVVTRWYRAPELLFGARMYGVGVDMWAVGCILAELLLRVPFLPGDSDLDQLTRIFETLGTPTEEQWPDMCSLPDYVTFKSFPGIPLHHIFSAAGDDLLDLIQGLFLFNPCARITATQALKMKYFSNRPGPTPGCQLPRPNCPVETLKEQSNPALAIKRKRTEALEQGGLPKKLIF
RET(V804L), sequence (P07949 29-1114 V804L): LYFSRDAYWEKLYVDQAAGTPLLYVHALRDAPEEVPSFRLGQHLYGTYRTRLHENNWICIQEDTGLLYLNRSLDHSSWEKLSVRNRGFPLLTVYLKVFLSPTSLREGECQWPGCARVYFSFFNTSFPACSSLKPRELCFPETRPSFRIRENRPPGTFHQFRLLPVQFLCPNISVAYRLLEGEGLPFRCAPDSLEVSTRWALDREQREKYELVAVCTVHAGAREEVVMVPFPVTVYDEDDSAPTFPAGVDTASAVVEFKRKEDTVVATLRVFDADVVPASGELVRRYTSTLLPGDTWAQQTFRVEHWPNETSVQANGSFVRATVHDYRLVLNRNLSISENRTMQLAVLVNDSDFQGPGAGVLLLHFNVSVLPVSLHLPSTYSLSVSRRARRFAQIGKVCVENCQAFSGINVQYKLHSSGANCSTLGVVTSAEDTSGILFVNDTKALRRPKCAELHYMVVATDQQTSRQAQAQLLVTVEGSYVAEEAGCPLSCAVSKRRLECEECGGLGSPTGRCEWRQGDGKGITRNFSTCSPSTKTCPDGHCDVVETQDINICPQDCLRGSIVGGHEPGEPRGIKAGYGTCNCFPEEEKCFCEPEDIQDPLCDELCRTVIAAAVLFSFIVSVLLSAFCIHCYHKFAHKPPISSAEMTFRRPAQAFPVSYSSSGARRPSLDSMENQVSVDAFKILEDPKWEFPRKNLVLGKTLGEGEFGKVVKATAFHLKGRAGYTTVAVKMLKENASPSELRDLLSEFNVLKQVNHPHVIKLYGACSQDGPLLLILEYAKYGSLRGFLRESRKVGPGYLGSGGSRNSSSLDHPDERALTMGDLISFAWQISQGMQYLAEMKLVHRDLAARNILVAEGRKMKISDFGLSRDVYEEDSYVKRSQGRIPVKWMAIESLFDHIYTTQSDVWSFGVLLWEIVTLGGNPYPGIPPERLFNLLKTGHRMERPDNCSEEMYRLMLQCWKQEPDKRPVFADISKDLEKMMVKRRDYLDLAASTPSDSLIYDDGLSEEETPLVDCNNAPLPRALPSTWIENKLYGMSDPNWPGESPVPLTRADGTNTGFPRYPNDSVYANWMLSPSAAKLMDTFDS
RET, sequence (P07949 29-1114): as the sequence (P07949 29-1114 V804L) above, with L776V counted along it
RET(M918T), sequence (P07949 29-1114 M918T): as the sequence (P07949 29-1114 V804L) above, with L776V, M890T counted along it

## CN1C(=O)[C@@H](N2CCc3c(nn(Cc4ccccc4)c3C(N)=O)C2=O)COc2cc(Cl)ccc21 [Compound 10, (S)-2-benzyl-6-(8-chloro-5-methyl-4-oxo-2,3,4,5-tetrahydrobenzo[b][1,4]oxazepin-3-yl)-7-oxo-4,5,6,7-tetrahydro-2H-pyrazolo[3,4-c]pyridine-3-carboxamide]
[1]
  remaining activity at 1 µM: 94%
[2]
  remaining activity at 1 µM: 100%
[3]
  remaining activity at 0.1 µM: 92%
[4]
  remaining activity at 1 µM: 100%
[5]
  remaining activity at 0.1 µM: 100%
[6]
  remaining activity at 1 µM: 100%
[7]; 1000 nM
  remaining binding at 1 µM: 99%
[7]; compound concentration 100 nM, Entrez CDK7
  remaining binding at 0.1 µM: 72%
[8]
  remaining binding at 0.1 µM: 100%
[9]
  remaining binding at 1 µM: 98%
[10]; 1000 nM
  remaining binding at 1 µM: 100%
[10]; compound concentration 100 nM, Entrez AXL
  remaining binding at 0.1 µM: 95%
[11]
  remaining binding at 0.1 µM: 89%
[12]
  remaining activity at 1 µM: 97%
[13]
  remaining activity at 0.1 µM: 84%
[14]
  remaining activity at 0.1 µM: 84%
[15]
  remaining activity at 1 µM: 69%
[16]
  remaining activity at 0.1 µM: 75%
[17]
  remaining activity at 1 µM: 100%
[18]
  remaining activity at 1 µM: 78%
[19]
  remaining activity at 1 µM: 92%
[20]
  remaining activity at 1 µM: 96%
[21]; WNK2 (Entrez WNK2), 100 nM, read-out: Percent Control
  remaining binding at 0.1 µM: 100%
[21]; WNK2, 1 μM, read-out: POC (Top Hits @ 1 μM)
  remaining binding at 1 µM: 49%
[21]; WNK2, 1000 nM, read-out: Percent Control
  remaining binding at 1 µM: 49%
[22]
  remaining activity at 1 µM: 90%
[23]
  remaining activity at 1 µM: 87%
[24]
  remaining activity at 1 µM: 92%
[25]
  remaining activity at 1 µM: 56%
[26]
  remaining activity at 1 µM: 100%
[27]
  remaining activity at 1 µM: 100%
[28]
  remaining activity at 1 µM: 88%
[29]
  remaining activity at 0.1 µM: 100%
[30]
  remaining activity at 1 µM: 99%
[31]
  remaining activity at 1 µM: 79%
[32]
  Percent Control: 97%

## CN1C(=O)[C@@H](N2CCc3c(C(N)=O)nn(Cc4ccccc4)c3C2=O)COc2ccccc21 [Compound 11]
[33]
  ΔTM (stabilization in the DSF assay): inactive
